Results on 29 compounds are retold here after patent US11851440B2, “Modulators of eukaryotic initiation factor 2B, compositions and methods” (Denali Therapeutics Inc., priority 2017, dated 2023).

One may read the IC50 as the concentration that inhibits the measured activity by half.

In the first assay the test system is ISR pathway (ATF4 translation). The assay can be described thus: ATF4 Nano Luciferase reporter integrated stress response (ISR) assay in H4 ATF4-NLuc cells. The conditions noted are these: Homo sapiens, H4 ATF4-NLuc (clone 17) cells; compound 30 minutes, then 50 um sodium arsenite for 6 hours; luminescence readout.
For the compound `O=C(COc1ccc(C(F)(F)F)cc1)NC12CC(c3nnc([C@H]4C[C@@H](OC(F)(F)F)C4)o3)(C1)C2` [Example 162, N-[1-[5-[3-cis-(trifluoromethoxy)cyclobutyl]-1,3,4-oxadiazol-2-yl]-3-bicyclo[1.1.1]pentanyl]-2-[4-(trifluoromethyl)phenoxy]acetamide], the IC50 stood at 0.0149 µM.

The compound `O=C(NC12CC(c3nnc([C@H]4C[C@@H](OC(F)(F)F)C4)o3)(C1)C2)c1ccc2cc(Cl)cnc2c1` [Example 167, 3-chloro-N-[1-[5-[3-cis-(trifluoromethoxy)cyclobutyl]-1,3,4-oxadiazol-2-yl]-3-bicyclo[1.1.1]pentanyl]quinoline-7-carboxamide] returned an IC50 of 0.0439 µM.

Compound `O=C(COc1ccc(C(F)(F)F)nc1)NC12CC(n3cnc(-c4ccc(F)c(F)c4)c3)(C1)C2` [Example 161] displayed an IC50 of 0.0134 µM.

The same assay, now with this note: Homo sapiens, read-out: Activity (IC50), H4 ATF4-NLuc (clone 17) cells; compound 30 minutes, then 50 um sodium arsenite for 6 hours; luminescence readout.
On to `O=C(COc1ccc(Cl)c(F)c1)NC12CC(c3nnc([C@H]4C[C@H]4C(F)F)o3)(C1)C2` (single isomer, unassigned) [Example 85, 2-(4-chloro-3-fluoro-phenoxy)-N-[3-[5-[2-cis-(difluoromethyl)cyclopropyl]-1,3,4-oxadiazol-2-yl]-1-bicyclo[1.1.1]pentanyl]acetamide], for which the IC50 is 1 to 10 µM.

For `O=C(COc1ccc(Cl)c(F)c1)NC12CC(N3CC(COC(F)(F)F)CC3=O)(C1)C2` (centres unmarked) [Example 221], the IC50 was under 1 µM.

Turning to `O=C(CO[C@H]1C[C@@H](OC(F)(F)F)C1)NC12CC(c3nnc(OCCOC(F)(F)F)o3)(C1)C2` [Example 276], the IC50 was under 1 µM.

On to `O=C(COc1ccc(Cl)cc1)NC12CC(N3CC(C4CCC4)CC3=O)(C1)C2` (centres unmarked) [Example 213], for which the half-maximal inhibitory concentration (IC50) was 1 to 10 µM.

Regarding `O=C(NC12CC(c3nnc([C@H]4C[C@@H](OC(F)(F)F)C4)o3)(C1)C2)c1nc2ccc(Cl)cc2s1` [Example 192], the IC50 is under 1 µM.

As for `O=C(CO[C@H]1C[C@@H](n2nccn2)C1)NC12CC(n3cnc(-c4ccc(Cl)c(F)c4)c3)(C1)C2` [Example 230], the IC50 was under 1 µM.

For `Cc1cc(-c2cn(C34CC(NC(=O)CO[C@H]5C[C@@H](OC(F)(F)F)C5)(C3)C4)cn2)ccc1F` [Example 147], the IC50 is under 1 µM.

On to `O=C(COc1ccc(Cl)c(F)c1)NC12CC(c3cnn(C4CCC4)n3)(C1)C2` (single isomer, unassigned) [Example 19, 2-(4-Chloro-3-fluoro-phenoxy)-N-[1-(2-cyclobutyltriazol-4-yl)-3-bicyclo[1.1.1]pentanyl]acetamide], for which the IC50 is under 1 µM.

Take `O=C(COCCn1cc(F)cn1)NC12CC(n3cnc(-c4ccc(Cl)cc4)c3)(C1)C2` [Example 145]: the IC50 is under 1 µM.

`O=C(COc1ccc(Cl)c(F)c1)NC12CC(c3nnc(CN4CC(C(F)(F)F)C4)o3)(C1)C2` [Example 126, 2-(4-chloro-3-fluoro-phenoxy)-N-[3-[5-[[3-(trifluoromethyl)azetidin-1-yl]methyl]-1,3,4-oxadiazol-2-yl]-1-bicyclo[1.1.1]pentanyl]acetamide]: the IC50 was under 1 µM.

With `O=C(NC12CC(c3nnc([C@H]4C[C@@H](OC(F)(F)F)C4)o3)(C1)C2)OC[C@H]1C[C@@H](OC(F)(F)F)C1` [Example 88, [3-cis-(trifluoromethoxy)cyclobutyl]methyl N-[3-[5-[3-cis-(trifluoromethoxy)cyclobutyl]-1,3,4-oxadiazol-2-yl]-1-bicyclo[1.1.1]pentanyl]carbamate], the IC50 was under 1 µM.

For `O=C(COc1ccc(C(F)(F)F)cc1)NC12CC(c3nnc([C@H]4C[C@@H](OC(F)(F)F)C4)o3)(C1)C2` [Example 162, N-[1-[5-[3-cis-(trifluoromethoxy)cyclobutyl]-1,3,4-oxadiazol-2-yl]-3-bicyclo[1.1.1]pentanyl]-2-[4-(trifluoromethyl)phenoxy]acetamide], the IC50 is under 1 µM.

Consider `CC(C)(Oc1ccc(Cl)cc1)C(=O)NC12CC(c3nnc([C@H]4C[C@@H](OC(F)(F)F)C4)o3)(C1)C2` [Example 154], for which the IC50 is under 1 µM.

Regarding `O=C(COc1ccc(Cl)c(F)c1)NC12CC(c3nnc(C4C[C@H]4COC(F)(F)F)o3)(C1)C2` (single isomer, unassigned) [Example 82, 2-(4-chloro-3-fluoro-phenoxy)-N-[3-[5-[2-trans-(trifluoromethoxymethyl)cyclopropyl]-1,3,4-oxadiazol-2-yl]-1-bicyclo[1.1.1]pentanyl]acetamide], the IC50 was under 1 µM.

Consider `O=C(CO[C@H]1C[C@@H](OC(F)(F)F)C1)NC12CC(c3nnc(-c4ccc(C(F)(F)F)cn4)o3)(C1)C2` [Example 199], for which the IC50 was under 1 µM.

Turning to `O=C(NC12CC(c3nnc(C4CC(OC(F)(F)F)C4)o3)(C1)C2)C(CO)Oc1ccc(Cl)cc1` (centres unmarked) [Example 232], the IC50 is under 1 µM.

For the compound `O=C(COC[C@H]1C[C@@H](OC(F)(F)F)C1)NC12CC(c3nnc([C@H]4C[C@@H](OC(F)(F)F)C4)o3)(C1)C2` [Example 117, 2-[[3-cis-(trifluoromethoxy)cyclobutyl]methoxy]-N-[3-[5-[3-cis-(trifluoromethoxy)cyclobutyl]-1,3,4-oxadiazol-2-yl]-1-bicyclo[1.1.1]pentanyl]acetamide], the IC50 lay in the range of 1 to 10 µM.

Regarding `CC(C)(c1nnc(C23CC(NC(=O)COc4ccc(Cl)c(F)c4)(C2)C3)o1)C(F)F` [Example 131, 2-(4-chloro-3-fluoro-phenoxy)-N-[3-[5-(2,2-difluoro-1,1-dimethyl-ethyl)-1,3,4-oxadiazol-2-yl]-1-bicyclo[1.1.1]pentanyl]acetamide], the IC50 was over 10 µM.

As to `O=C(NC12CC(c3nnc([C@H]4C[C@@H](OC(F)(F)F)C4)o3)(C1)C2)c1ccc2cc(Cl)cnc2c1` [Example 167, 3-chloro-N-[1-[5-[3-cis-(trifluoromethoxy)cyclobutyl]-1,3,4-oxadiazol-2-yl]-3-bicyclo[1.1.1]pentanyl]quinoline-7-carboxamide], the IC50 was under 1 µM.

As for `CC1C(c2nnc(C34CC(NC(=O)COc5ccc(Cl)c(F)c5)(C3)C4)o2)CN1C(=O)OC(C)(C)C` (centres unmarked) [Example 122, tert-butyl 3-[5-[3-[[2-(4-chloro-3-fluoro-phenoxy)acetyl]amino]-1-bicyclo[1.1.1]pentanyl]-1,3,4-oxadiazol-2-yl]-2-methyl-azetidine-1-carboxylate], the IC50 was under 1 µM.

For the compound `O=C(COc1ccc(Cl)c(F)c1)NC12CC(c3nnc(CO[C@H]4C[C@@H](OC(F)(F)F)C4)o3)(C1)C2` [Example 53], the IC50 is under 1 µM.

Regarding `O=C(NC12CC(c3nnc([C@H]4C[C@@H](OC(F)(F)F)C4)o3)(C1)C2)c1cc2ccc(Br)cc2cn1` [Example 184], the IC50 is under 1 µM.

As to `O=C(COc1ccc(Cl)c(F)c1)NC12CC(c3nnc(C4(F)CC4)o3)(C1)C2` [Example 10, 2-(4-chloro-3-fluoro-phenoxy)-N-[1-[5-(1-fluorocyclopropyl)-1,3,4-oxadiazol-2-yl]-3-bicyclo[1.1.1]pentanyl]acetamide], the IC50 was under 1 µM.

For the compound `O=C(COc1ccc(Cl)cc1)NC12CC(c3nnc([C@H]4C[C@@H](COC(F)(F)F)C4)o3)(C1)C2` [Example 86, 2-(4-chlorophenoxy)-N-[3-[5-[3-cis-(trifluoromethoxymethyl)cyclobutyl]-1,3,4-oxadiazol-2-yl]-1-bicyclo[1.1.1]pentanyl]acetamide], the IC50 was under 1 µM.

Take `O=C(CO[C@H]1C[C@@H](OC(F)(F)F)C1)NC12CC(c3ncc(-c4ccc(Cl)c(F)c4)o3)(C1)C2` [Example 227]: the IC50 is under 1 µM.

As to `O=C(CO[C@H]1C[C@@H](OC(F)(F)F)C1)NC12CC(c3cc(-c4ccc(Cl)cc4F)no3)(C1)C2` [Example 252], the IC50 is under 1 µM.

On to `O=C(COc1ccc(C(F)(F)F)nc1)NC12CC(n3cnc(-c4ccc(F)c(F)c4)c3)(C1)C2` [Example 161], for which the IC50 was under 1 µM.

As for `O=C(COc1ccc(Cl)c(CO)c1)NC12CC(c3nnc([C@H]4C[C@@H](OC(F)(F)F)C4)o3)(C1)C2` [Example 256], the IC50 was under 1 µM.

Still in this assay, the particulars now being: read-out: Activity (IC50); H4 ATF4-NLuc (clone 17) cells; compound 30 minutes, then 50 um sodium arsenite for 6 hours; luminescence readout.
For `O=C(NC12CC(c3nnc([C@H]4C[C@@H](OC(F)(F)F)C4)o3)(C1)C2)C1CCc2cc(F)ccc2O1` (single isomer, unassigned) [Example 160], the half-inhibitory concentration (IC50) was under 1 µM.
